The values that follow come from patent publication US12187701B2, “Taire family kinase inhibitors and uses thereof” (Dana-Farber Cancer Institute, Inc., priority 2018, dated 2025).

By IC50 is commonly meant the point on the concentration scale where inhibition reaches its midpoint.

Where two headings read alike, the source gives them in different places.

Assay [1] addresses T1, Cdk14 (Homo sapiens (Human), UniProt O94921). Put plainly: Protein labeling and mass spectrometry analysis of recombinant Cdk14. Particulars: 10-fold molar excess of compound, 2 hours, room temperature. It counts as binding.
Target sequence in this assay (O94921 whole entry, the tested form may be a part): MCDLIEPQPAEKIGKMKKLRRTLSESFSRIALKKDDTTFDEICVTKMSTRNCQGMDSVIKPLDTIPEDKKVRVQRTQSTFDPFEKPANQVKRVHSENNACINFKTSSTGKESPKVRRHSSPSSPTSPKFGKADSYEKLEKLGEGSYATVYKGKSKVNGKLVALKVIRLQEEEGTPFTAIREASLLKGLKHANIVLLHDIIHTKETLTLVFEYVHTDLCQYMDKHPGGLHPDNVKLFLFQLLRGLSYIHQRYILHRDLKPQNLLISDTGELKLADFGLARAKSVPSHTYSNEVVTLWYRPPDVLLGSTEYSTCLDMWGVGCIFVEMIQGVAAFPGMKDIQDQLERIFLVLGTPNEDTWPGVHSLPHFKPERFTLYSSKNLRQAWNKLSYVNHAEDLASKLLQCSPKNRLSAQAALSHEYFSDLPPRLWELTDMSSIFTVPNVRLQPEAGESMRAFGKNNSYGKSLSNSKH
Experimental: For each analysis, 5 μg protein was injected onto a self-packed reversed phase column ( 1/32″ O.D.×500 um I.D., 5 cm of POROS 50R2 resin). After desalting for four minutes, protein was eluted with an HPLC gradient (0-100% B in 4 minutes, A=0.2M acetic acid in water, B=0.2 M acetic acid in acetonitrile, flow rate=10 μL/min) into an LTQ ion trap mass spectrometer (ThermoFisher). […] After reconstituting in 50% acetonitrile, 1% formic acid, 100 mM ammonium acetate, peptides were analyzed by CE-MS using a ZipChip CE system and autosampler interfaced to a QExactive HF mass spectrometer.^7 (ThermoFisher Scientific, San Jose, CA). Peptide solution was loaded for 30 seconds and separation performed at 500 V/cm on an HR chip for 10 minutes with a background electrolyte consisting of 1% formic acid in 50% acetonitrile. Pressure assist was utilized and started at 1 minute. The mass spectrometer was operated in data dependent mode and subjected the 5 most abundant ions in each MS scan (60 k resolution, 1E6 target, lock mass enabled) to MS/MS (15 k resolution, 2E5 target, 100 ms max inject time). Dynamic exclusion was enabled with a repeat count of 1 and an exclusion time of 6 seconds. MS/MS data was extracted to .mgf using mulitplierz scripts^8,9 and searched against a forward-reverse human NCBI refseq database using Mascot version 2.2. […]
Assay [2] deals with T1, Cdk14. Put plainly: Cellular pull down with biotinylated probe, CDK14.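 On all read-outs here: biotinylated probe used at 1 µM in lysates overnight at 4 °C.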 It counts as cell-based. The following applies: HEK293 cells overexpressing Cdk14-flag, 4 hours treatment; for Cellular Potency by Pulldown: some cells print Y or N instead of a concentration. The method, then: HEK293 cells overexpressing a Cdk14-flag fusion protein were treated with candidate compounds for 4 hours. Cells were washed with PBS, harvested and lysed in Pierce IP buffer with protease and phosphatase inhibitors (Roche). […] To enhance pulldown, lysates were incubated at room temperature for an additional 2 hours. […] Beads were then washed 3 times with Pierce IP buffer, then boiled at 95° C. for 5 minutes in 2× LDS+10% β-mercaptoethanol. Proteins of interest engaged by the biotinylated compound were then assessed using western blotting.
Target sequence in this assay (O94921 whole entry, the tested form may be a part): as above

A further assay concerns HCT116 cells. Description: Antiproliferation assay, Cell Titer Glo, 72 hours. In kind it is cell-based. The gist of the method: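 Luminescent CellTiter-Glo read-out after 72 h compound exposure (four-fold dilutions, 37 °C, 5% CO2) of HCT116 cells plated at 750 cells/well in McCoy's 5A + 10% FBS. Biological quadruplicates; IC50 from non-linear curve fitting.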
In the next assay the target is CDK16/CycY (Homo sapiens (Human), UniProt Q00536). Put plainly: Lanthascreen Eu kinase binding assay for CDK16/CycY. The procedure:
Lanthascreen Eu kinase binding assays were conducted for CDK16/CycY at Life Technologies.
A general note: TR-FRET usually uses a lanthanide donor and a delayed reading to cut background.

For the next assay, the target named is CDK2/CycA (Homo sapiens (Human), UniProt P24941). Description: Z'LYTE kinase assay for CDK2/CycA at Km ATP. In kind it is biochemical.
Another assay deals with CDK12 (Homo sapiens (Human), UniProt Q9NYV4). Put plainly: Cellular pull down with biotinylated probe, CDK12. In kind it is cell-based. Particulars: HEK293 cells, 4 hours treatment; Y/N/slight. The procedure:
HEK293 cells overexpressing a Cdk14-flag fusion protein were treated with candidate compounds for 4 hours. Cells were washed with PBS, harvested and lysed in Pierce IP buffer with protease and phosphatase inhibitors (Roche). […] To enhance pulldown, lysates were incubated at room temperature for an additional 2 hours. Lysates were then incubated with streptavidin agarose (Thermo scientific, cat. #20349) for 2 hours at 4° C. Beads were then washed 3 times with Pierce IP buffer, then boiled at 95° C. for 5 minutes in 2× LDS+10% β-mercaptoethanol. Proteins of interest engaged by the biotinylated compound were then assessed using western blotting. The results of the cellular pulldown protocol are provided in Tables 1 and 2A, 2B, 2C, and 2D below (Columns titled “CDK2 pulldown,” “CDK9 pulldown,” “CDK12 pulldown blocked,” “CDK14 pulldown blocked,” and “Cellular Potency Pulldown.”)

The next assay deals with Cdk14/CycY (Homo sapiens (Human), UniProt O94921). Description: Lanthascreen Eu kinase binding assay for Cdk14/CycY with 30 minute pre-incubation. The following applies: 30 minute pre-incubation of kinase with compound. The method, then: Lanthascreen Eu kinase binding assays were conducted for Cdk14/CycY largely as performed in the commercial assay service by Life Technologies, but included a 30 minute pre-incubation step of the kinase with candidate compounds to facilitate covalent bond formation.

The target of assay [3] is T1, Cdk14. Description: Cdk14 33P kinase assay (Reaction Biology Corp.). In kind it is biochemical.
Target sequence in this assay (O94921 whole entry, looked up, the tested form may be a part): as the sequence (O94921 whole entry, the tested form may be a part) above
Target sequence in this assay (Q8ND76 whole entry partner, looked up, the tested form may be a part): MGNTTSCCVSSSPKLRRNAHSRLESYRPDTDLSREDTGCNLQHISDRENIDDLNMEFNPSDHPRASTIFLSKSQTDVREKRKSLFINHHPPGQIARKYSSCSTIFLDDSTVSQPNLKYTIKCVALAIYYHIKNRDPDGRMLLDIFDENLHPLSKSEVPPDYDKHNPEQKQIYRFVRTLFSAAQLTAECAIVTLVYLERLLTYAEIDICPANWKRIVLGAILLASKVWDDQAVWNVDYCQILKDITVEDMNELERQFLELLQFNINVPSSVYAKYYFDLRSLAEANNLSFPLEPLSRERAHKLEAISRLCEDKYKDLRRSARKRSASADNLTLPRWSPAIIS
[4] abbreviates: read-out: IC50 CDK16 Lanthascreen binding.
Setting [5] is: read-out: IC50 CDK2 Z′LYTE kinase assay.

CDK16/CycY, sequence (Q00536 whole entry): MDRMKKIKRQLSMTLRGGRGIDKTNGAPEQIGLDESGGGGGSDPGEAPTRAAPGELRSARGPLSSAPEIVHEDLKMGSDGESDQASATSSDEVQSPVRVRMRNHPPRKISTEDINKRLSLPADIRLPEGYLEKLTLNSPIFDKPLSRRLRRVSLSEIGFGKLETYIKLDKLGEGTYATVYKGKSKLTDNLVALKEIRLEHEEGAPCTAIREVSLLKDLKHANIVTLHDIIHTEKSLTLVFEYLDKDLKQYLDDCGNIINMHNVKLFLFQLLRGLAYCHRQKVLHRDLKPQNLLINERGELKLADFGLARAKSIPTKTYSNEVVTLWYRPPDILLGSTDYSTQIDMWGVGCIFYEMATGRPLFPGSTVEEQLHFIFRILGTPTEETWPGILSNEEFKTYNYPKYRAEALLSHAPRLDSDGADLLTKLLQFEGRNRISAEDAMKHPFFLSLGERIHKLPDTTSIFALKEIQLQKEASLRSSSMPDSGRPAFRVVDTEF
CDK16/CycY, sequence (Q8ND76 whole entry partner): as the sequence (Q8ND76 whole entry partner, looked up, the tested form may be a part) above
Cdk14/CycY, sequence (O94921 whole entry): as the sequence (O94921 whole entry, the tested form may be a part) above
Cdk14/CycY, sequence (Q8ND76 whole entry partner): as the sequence (Q8ND76 whole entry partner, looked up, the tested form may be a part) above
CDK12, sequence (Q9NYV4 whole entry, the tested form may be a part): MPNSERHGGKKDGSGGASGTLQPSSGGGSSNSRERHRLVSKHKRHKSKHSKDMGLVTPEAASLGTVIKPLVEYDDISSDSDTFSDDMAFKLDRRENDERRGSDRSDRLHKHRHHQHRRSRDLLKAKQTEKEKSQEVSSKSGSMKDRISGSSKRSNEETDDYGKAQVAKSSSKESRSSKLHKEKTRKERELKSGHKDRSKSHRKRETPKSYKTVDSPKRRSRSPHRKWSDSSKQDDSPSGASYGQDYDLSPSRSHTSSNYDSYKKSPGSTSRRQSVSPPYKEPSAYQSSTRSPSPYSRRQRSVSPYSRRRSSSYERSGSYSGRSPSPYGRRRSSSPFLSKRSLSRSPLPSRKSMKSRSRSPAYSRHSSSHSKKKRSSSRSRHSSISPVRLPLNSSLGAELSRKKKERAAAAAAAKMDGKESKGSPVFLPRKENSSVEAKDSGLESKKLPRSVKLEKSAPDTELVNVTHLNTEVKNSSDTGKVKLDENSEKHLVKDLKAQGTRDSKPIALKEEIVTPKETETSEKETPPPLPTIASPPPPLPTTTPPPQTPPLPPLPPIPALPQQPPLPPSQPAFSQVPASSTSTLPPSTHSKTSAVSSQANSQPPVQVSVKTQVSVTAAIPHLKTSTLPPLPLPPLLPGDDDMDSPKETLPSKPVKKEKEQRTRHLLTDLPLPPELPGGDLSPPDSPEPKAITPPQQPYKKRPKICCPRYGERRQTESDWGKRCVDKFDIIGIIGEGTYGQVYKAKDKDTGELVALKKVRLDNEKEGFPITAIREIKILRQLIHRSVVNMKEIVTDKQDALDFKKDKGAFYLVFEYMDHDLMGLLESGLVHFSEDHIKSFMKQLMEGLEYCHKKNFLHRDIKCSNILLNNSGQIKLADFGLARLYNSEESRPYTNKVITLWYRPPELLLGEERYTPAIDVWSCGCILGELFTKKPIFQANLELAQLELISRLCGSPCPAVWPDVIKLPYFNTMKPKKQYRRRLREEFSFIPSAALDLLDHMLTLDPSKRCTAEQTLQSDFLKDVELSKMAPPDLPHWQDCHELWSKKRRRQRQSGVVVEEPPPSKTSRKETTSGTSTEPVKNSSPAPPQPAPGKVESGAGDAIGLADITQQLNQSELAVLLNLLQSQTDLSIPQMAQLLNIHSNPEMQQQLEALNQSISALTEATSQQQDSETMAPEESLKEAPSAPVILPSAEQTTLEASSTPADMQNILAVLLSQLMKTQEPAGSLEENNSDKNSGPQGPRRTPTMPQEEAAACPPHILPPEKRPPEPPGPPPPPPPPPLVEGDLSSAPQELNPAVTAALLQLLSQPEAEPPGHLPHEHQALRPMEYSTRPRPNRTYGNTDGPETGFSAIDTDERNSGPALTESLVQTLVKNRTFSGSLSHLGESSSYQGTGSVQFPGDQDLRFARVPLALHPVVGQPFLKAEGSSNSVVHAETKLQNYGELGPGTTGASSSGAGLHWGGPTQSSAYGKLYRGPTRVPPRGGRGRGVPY

As for `CCOc1cccc(Cl)c1C(=O)Nc1c[nH]nc1C(=O)NC1CCN(S(=O)(=O)c2cccc(NC(=O)/C=C/CN(C)C)c2)CC1` [FMF-05-118-1, (E)-4-(2-chloro-6-ethoxybenzamido)-N-(1-((3-(4-(dimethylamino)but-2-enamido)phenyl)sulfonyl)piperidin-4-yl)-1H-pyrazole-3-carboxamide], the “MS labeling of CDK14*” value at Cdk14 [1] is on record as 50%. Moreover, at Cdk14 [2], the “CDK14 pulldown blocked” value is 1000 nM. The “Cellular Potency by Pulldown” value at Cdk14 [2] was determined as 1 µM. For the same compound, the IC50 in the assay with HCT116 cells (Homo sapiens, HCT-116, 72 h) stood at 0.102 µM; on CDK16/CycY (read-out: CDK16 IC50), 0.0029 µM; on CDK16/CycY (setting [4]) it was 0.00291 µM; on CDK2/CycA (read-out: CDK2 IC50), 0.0029 µM; at CDK2/CycA (setting [5]), 0.00295 µM.
As to `CN(C)C/C=C/C(=O)Nc1cccc(S(=O)(=O)N2CCC(NC(=O)c3n[nH]cc3NC(=O)c3c(Cl)cc(Cl)cc3Cl)CC2)c1` [FMF-04-159-2, (E)-N-(1-((3-(4-(dimethylamino)but-2-enamido)phenyl)sulfonyl)piperidin-4-yl)-4-(2,4,6-trichlorobenzamido)-1H-pyrazole-3-carboxamide], the CDK12 pulldown blocked result on CDK12 is “slight”. For the same compound, the “MS labeling of CDK14*” value on Cdk14 [1] came to 100%. Moreover, the half-maximal inhibitory concentration (IC50) at Cdk14/CycY (read-out: CDK14 IC50 (nM) LanthaScreen) came to 46.6 nM; on Cdk14/CycY (read-out: IC50 CDK14 binding by Lanthascreen) it was 47 nM; in the assay on HCT116 cells it was 0.45 µM; with HCT116 cells (Homo sapiens, HCT-116, 72 h), 0.45 µM; at Cdk14 [3] it was 0.718 µM; on CDK16/CycY (read-out: CDK16 IC50), 0.0101 µM. For the same compound, the IC50 came to 0.0082 µM on CDK16/CycY (setting [4]), 0.0082 µM on CDK2/CycA (read-out: CDK2 IC50) and 0.0101 µM at CDK2/CycA (setting [5]). For the same compound, the “CDK14 pulldown blocked” value on Cdk14 [2] is recorded as 500 nM. Further, on Cdk14 [2], the “Cellular Potency by Pulldown” value was 0.5 µM.
